Three compounds from US20220274954A1, “SUBSTITUTED N-PHENYL-N-AMINOUARCILS AND SALTS THEREOF AND USE THEREOF AS HERBICIDAL AGENTS” (Bayer Aktiengesellschaft, priority 2019, published 2022) can be followed below.

Each structure is given as a SMILES string.

What all share (assay type): in vivo
In one data set the test system is Veronica persica. The data set is described as follows: Post-emergence herbicidal action. Conditions: for pest or weed control at 5 g/ha / pest or weed control at 20 g/ha: Veronica persica, 504 h, read-out: Veronica persica (efficacy in %). On the procedure: (§1) Seeds of monocotyledonous and dicotyledonous weeds and crop plants were placed in sandy loam in plastic or wood-fiber pots, covered with soil and cultivated in a greenhouse under controlled growth conditions. 2 to 3 weeks after sowing, the test plants were treated at the one-leaf stage. The compounds of the invention, formulated in the form of wettable powders (WP) or as emulsion concentrates (EC), were then sprayed onto the green parts of the plants as aqueous suspension or emulsion with addition of 0.5% additive at a water application rate of […] (converted). After the test plants had been kept in the greenhouse under optimum growth conditions for about 3 weeks, the activity of the preparations was rated visually in comparison to untreated controls. For example, 100% activity=the plants have died, 0% activity=like control plants. Tables A1 to A14 below show the effects of selected compounds of the general formula (I) according to Tables I.1 to I.34 on various harmful plants and at an application rate corresponding to 20 g/ha and less, which were obtained by the experimental procedure mentioned above.

The test system of a further data set is Polygonum convolvulus. The data set is described as follows: Post-emergence herbicidal action. Conditions: Fallopia convolvulus, 504 h, read-out: Polygonum convolvulus (efficacy in %); for pest or weed control at 5 g/ha: application rate 5 g/ha; for pest or weed control at 20 g/ha: application rate 20 g/ha. On the procedure:
as §1

For another data set, the system named is Stellaria media. Description: Post-emergence herbicidal action. On the procedure: as §1
Another data set concerns Pharbitis purpurea. The data set is described as follows: Post-emergence herbicidal action. On the procedure: as §1
In a further data set the test system is Abutilon theophrasti. Description: Post-emergence herbicidal action. Conditions: for pest or weed control at 5 g/ha / pest or weed control at 20 g/ha: Abutilon theophrasti, 504 h, read-out: Abutilon theophrasti (efficacy in %). On the procedure:
as §1

Another data set has as its system Matricaria inodora. The data set is described as follows: Post-emergence herbicidal action. Conditions: for pest or weed control at 20 g/ha: Tripleurospermum inodorum, 504 h, read-out: Matricaria inodora (efficacy in %). On the procedure: as §1
The test system of the next data set is Viola tricolor. The data set is described as follows: Post-emergence herbicidal action. As to conditions: for pest or weed control at 5 g/ha / pest or weed control at 20 g/ha: Viola tricolor, 504 h, read-out: Viola tricolor (efficacy in %). On the procedure: as §1
Another data set concerns Alopecurus myosuroides. Description: Post-emergence herbicidal action. On the procedure: as §1
For the next data set, the system named is Digitaria sanguinalis. The data set is described as follows: Post-emergence herbicidal action. Conditions: 504 h, read-out: Digitaria sanguinalis (efficacy in %); for pest or weed control at 20 g/ha: application rate 20 g/ha. On the procedure:
as §1

In the next data set the test system is Setaria viridis. Description: Post-emergence herbicidal action. As to conditions: 504 h, read-out: Setaria viridis (efficacy in %); for pest or weed control at 5 g/ha: application rate 5 g/ha; for pest or weed control at 20 g/ha: application rate 20 g/ha. On the procedure: as §1
A further data set deals with Amaranthus retroflexus. The data set is described as follows: Post-emergence herbicidal action. Conditions: for pest or weed control at 5 g/ha / pest or weed control at 20 g/ha: Amaranthus retroflexus, 504 h, read-out: Amaranthus retroflexus (efficacy in %). On the procedure: as §1
The subject of another data set is Echinochloa crus-galli. The data set is described as follows: Post-emergence herbicidal action. As to conditions: Echinochloa crus-galli, 504 h, read-out: Echinochloa crus-galli (efficacy in %); for pest or weed control at 20 g/ha: application rate 20 g/ha. On the procedure: as §1
The subject of a further data set is Triticum aestivum. The data set is described as follows: Post-emergence crop plant compatibility. On the procedure:
as §1, with “plants.” for “plants. Tables A1 to A14 below show the effects of selected compounds of the general formula (I) according to Tables I.1 to I.34 on various harmful plants and at an application rate corresponding to 20 g/ha and less, which were obtained by the experimental procedure mentioned above.”
(§2) Here, the observed effects on selected crop plants are stated in comparison to the untreated controls (values in %).

The test system of the next data set is Zea mays. The data set is described as follows: Post-emergence crop plant compatibility. On the procedure: as §1, with “plants.” for “plants. Tables A1 to A14 below show the effects of selected compounds of the general formula (I) according to Tables I.1 to I.34 on various harmful plants and at an application rate corresponding to 20 g/ha and less, which were obtained by the experimental procedure mentioned above.”
as §2

The subject of the next data set is Oryza sativa. The data set is described as follows: Post-emergence crop plant compatibility. On the procedure:
as §1, with “plants.” for “plants. Tables A1 to A14 below show the effects of selected compounds of the general formula (I) according to Tables I.1 to I.34 on various harmful plants and at an application rate corresponding to 20 g/ha and less, which were obtained by the experimental procedure mentioned above.”
as §2

The next data set deals with Brassica napus. Description: Post-emergence crop plant compatibility. As to conditions: application rate 1.25 g/ha. On the procedure: as §1, with “plants.” for “plants. Tables A1 to A14 below show the effects of selected compounds of the general formula (I) according to Tables I.1 to I.34 on various harmful plants and at an application rate corresponding to 20 g/ha and less, which were obtained by the experimental procedure mentioned above.”
as §2

For a further data set, the system named is Avena fatua. The data set is described as follows: Post-emergence herbicidal action. Conditions: application rate 20 g/ha. On the procedure:
as §1

The next data set has as its system Glycine max. The data set is described as follows: Post-emergence crop plant compatibility. Conditions: application rate 1.25 g/ha. On the procedure:
as §1, with “plants.” for “plants. Tables A1 to A14 below show the effects of selected compounds of the general formula (I) according to Tables I.1 to I.34 on various harmful plants and at an application rate corresponding to 20 g/ha and less, which were obtained by the experimental procedure mentioned above.”
as §2

For the compound `COC(=O)CCCOc1ncccc1Sc1cc(-n2c(=O)cc(C(F)(F)F)n(N)c2=O)c(F)cc1Cl` [I.6-441, Methyl 4-{[3-({5-[3-amino-2,6-dioxo-4-(trifluoromethyl)-3,6-dihydropyrimidin-1(2H)-yl]-2-chloro-4-fluorophenyl}sulfanyl)pyridin-2-yl]oxy}butanoate], the pest or weed control at 5 g/ha with Veronica persica (application rate 5 g/ha) came to 100%; with Polygonum convolvulus, 100%; in the data set on Pharbitis purpurea (Ipomoea purpurea, 504 h, application rate 5 g/ha, read-out: Pharbitis purpurea (efficacy in %)) it was 80%; in the data set with Abutilon theophrasti (application rate 5 g/ha), 100%; with Viola tricolor (application rate 5 g/ha) it was 100%; in the data set on Digitaria sanguinalis (application rate 5 g/ha) it was 80%. Moreover, the pest or weed control at 5 g/ha amounted to 90% in the data set with Setaria viridis, 100% in the data set on Amaranthus retroflexus (application rate 5 g/ha) and 80% in the data set on Echinochloa crus-galli (application rate 5 g/ha). Also, the pest or weed control at 20 g/ha is 100% in the data set with Veronica persica (application rate 20 g/ha); 100% in the data set with Polygonum convolvulus; 90% in the data set with Pharbitis purpurea (Ipomoea purpurea, 504 h, application rate 20 g/ha, read-out: Pharbitis purpurea (efficacy in %)); 100% in the data set with Abutilon theophrasti (application rate 20 g/ha); 80% with Matricaria inodora (application rate 20 g/ha); 100% in the data set with Viola tricolor (application rate 20 g/ha). Further, the pest or weed control at 20 g/ha in the data set on Digitaria sanguinalis was determined as 100%; with Setaria viridis, 100%; in the data set on Amaranthus retroflexus (application rate 20 g/ha) it was 100%; in the data set on Echinochloa crus-galli, 90%. Moreover, the “Stellaria media (efficacy in %)” value with Stellaria media (application rate 5 g/ha) and in the data set on Stellaria media (application rate 20 g/ha) was 100% each time. Moreover, in the data set on Alopecurus myosuroides (application rate 20 g/ha), the “Alopecurus myosuroides (efficacy in %)” value was 80%. In addition, the “Triticum aestivum (efficacy in %)” value in the data set with Triticum aestivum (application rate 5 g/ha) was 20%. Besides, the “Zea mays (efficacy in %)” value in the data set on Zea mays (application rate 1.25 g/ha) is reported as 10%; in the data set with Zea mays (application rate 5 g/ha), 20%. In addition, the “Oryza sativa (efficacy in %)” value in the data set on Oryza sativa (application rate 5 g/ha) was 20%. Further, in the data set on Brassica napus, the “Brassica napus (efficacy in %)” value is reported as 20%.
Turning to `Nn1c(C(F)(F)F)cc(=O)n(-c2cc(Sc3cccnc3OCC(=O)OCc3ccccn3)c(Cl)cc2F)c1=O` [I.1-286], the “Veronica persica (efficacy in %)” value in the data set on Veronica persica (application rate 5 g/ha) and with Veronica persica (application rate 20 g/ha) was 100% in each case. Further, the “Pharbitis purpurea (efficacy in %)” value in the data set on Pharbitis purpurea (application rate 5 g/ha) is 100%. Besides, in the data set with Avena fatua, the “Avena fatua (efficacy in %)” value is given as 80%. For the same compound, the “Abutilon theophrasti (efficacy in %)” value in the data set with Abutilon theophrasti (application rate 5 g/ha) and in the data set with Abutilon theophrasti (application rate 20 g/ha) was 100% each time. Also, the “Matricaria inodora (efficacy in %)” value in the data set on Matricaria inodora (application rate 5 g/ha) and in the data set with Matricaria inodora (application rate 20 g/ha) was 100% throughout. In addition, the “Viola tricolor (efficacy in %)” value in the data set on Viola tricolor (application rate 5 g/ha) and in the data set on Viola tricolor (application rate 20 g/ha) was 100% in each case. Also, the “Alopecurus myosuroides (efficacy in %)” value with Alopecurus myosuroides (application rate 5 g/ha) and in the data set with Alopecurus myosuroides (application rate 20 g/ha) was 100% each time. Besides, the “Amaranthus retroflexus (efficacy in %)” value in the data set with Amaranthus retroflexus (application rate 5 g/ha) and with Amaranthus retroflexus (application rate 20 g/ha) was 100% each time. The “Triticum aestivum (efficacy in %)” value in the data set on Triticum aestivum (application rate 1.25 g/ha) stood at 20%. The “Oryza sativa (efficacy in %)” value with Oryza sativa (application rate 1.25 g/ha) is on record as 0%.
Consider `CCOC(=O)C(C)Oc1ncccc1Sc1cc(-n2c(=O)cc(C(F)(F)F)n(N)c2=O)c(F)cc1Cl` (centres unmarked) [I.2-442, Ethyl 2-{[3-({5-[3-amino-2,6-dioxo-4-(trifluoromethyl)-3,6-dihydropyrimidin-1(2H)-yl]-2-chloro-4-fluorophenyl}sulfanyl)pyridin-2-yl]oxy}propanoate], for which the pest or weed control at 5 g/ha in the data set on Veronica persica (application rate 5 g/ha), in the data set with Polygonum convolvulus, in the data set with Abutilon theophrasti (application rate 5 g/ha), in the data set on Viola tricolor (application rate 5 g/ha), in the data set on Setaria viridis and in the data set on Amaranthus retroflexus (application rate 5 g/ha) was 100% in each case. Further, the pest or weed control at 20 g/ha in the data set on Veronica persica (application rate 20 g/ha) was found to be 100%; in the data set on Polygonum convolvulus, 100%; with Abutilon theophrasti (application rate 20 g/ha) it was 100%; with Matricaria inodora (application rate 20 g/ha), 90%; in the data set with Viola tricolor (application rate 20 g/ha), 100%; in the data set with Digitaria sanguinalis, 100%. Also, the pest or weed control at 20 g/ha in the data set with Setaria viridis, in the data set with Amaranthus retroflexus (application rate 20 g/ha) and in the data set with Echinochloa crus-galli was 100% each time. For the same compound, the figures for the “Stellaria media (efficacy in %)” value in the data set on Stellaria media (application rate 5 g/ha) and in the data set on Stellaria media (application rate 20 g/ha) were 80% and 100%, respectively. Besides, the “Triticum aestivum (efficacy in %)” value with Triticum aestivum (application rate 5 g/ha) is listed as 20%. For the same compound, the figures for the “Zea mays (efficacy in %)” value in the data set with Zea mays (application rate 1.25 g/ha) and in the data set with Zea mays (application rate 5 g/ha) were 10% and 20%, respectively. Besides, the “Glycine max (efficacy in %)” value in the data set on Glycine max came out at 10%. In addition, the “Oryza sativa (efficacy in %)” value in the data set with Oryza sativa (application rate 5 g/ha) was 0%.
